In ChEMBL document CHEMBL4024739, “Diversity-oriented sustainable synthesis of antimicrobial spiropyrrolidine/thiapyrrolizidine oxindole derivatives: New ligands for a metallo-β-lactamase from Klebsiella pneumonia” (2017):
Converted amounts (≈) assume the structure as drawn.

What was measured:
Format in all cases: functional
Sporothrix schenckii = experiment: Antifungal activity against Sporothrix schenckii by spectrophotometric method
Candida albicans = experiment: Antifungal activity against Candida albicans by spectrophotometric method
Cryptococcus neoformans = experiment: Antifungal activity against Cryptococcus neoformans by spectrophotometric method
Aspergillus fumigatus = experiment: Antifungal activity against Aspergillus fumigatus by spectrophotometric method
Candida parapsilosis = experiment: Antifungal activity against Candida parapsilosis ATCC 22019 by spectrophotometric method; conditions: Lodderomyces parapsilosis
[1] = system: Trichophyton mentagrophytes; experiment: Antifungal activity against Trichophyton mentagrophytes by spectrophotometric method
Klebsiella pneumoniae [2] = experiment: Antibacterial activity against Klebsiella pneumoniae ATCC 27736 by spectrophotometric method
Pseudomonas aeruginosa = experiment: Antibacterial activity against Pseudomonas aeruginosa ATCC BAA-427 by spectrophotometric method
Escherichia coli = experiment: Antibacterial activity against Escherichia coli ATCC 9637 by spectrophotometric method; conditions: W
Staphylococcus aureus = experiment: Antibacterial activity against Staphylococcus aureus ATCC 25923 by spectrophotometric method
Klebsiella pneumoniae [3] = experiment: Potency index, ratio of gentamicin MIC to compound MIC for Klebsiella pneumoniae ATCC 27736
Klebsiella pneumoniae [4] = experiment: Potency index, ratio of amphicillin MIC to compound MIC for Klebsiella pneumoniae ATCC 27736

Compound | MIC (Sporothrix schenckii) | MIC (Candida albicans) | MIC (Cryptococcus neoformans) | MIC (Aspergillus fumigatus) | MIC (Candida parapsilosis) | MIC [1] | MIC (Klebsiella pneumoniae [2]) | MIC (Pseudomonas aeruginosa) | MIC (Escherichia coli) | MIC (Staphylococcus aureus) | Ratio (Klebsiella pneumoniae [3]) | Ratio (Klebsiella pneumoniae [4])
OC(Cn1cncn1)(Cn1cncn1)c1ccc(F)cc1F [FLUCONAZOLE] | 2 mg/L (≈ 6.53 µM) | 1 mg/L (≈ 3.27 µM) | 0.5 mg/L (≈ 1.63 µM) | 2 mg/L (≈ 6.53 µM) | 1 mg/L (≈ 3.27 µM) | 1 mg/L (≈ 3.27 µM) | – | – | – | – | – | –
CCOC(=O)[C@]1(C#N)[C@@H](c2c(F)cccc2Cl)CN(C)[C@@]12C(=O)Nc1ccc(Cl)cc12 | 50 mg/L (≈ 108 µM) | 50 mg/L (≈ 108 µM) | 50 mg/L (≈ 108 µM) | 50 mg/L (≈ 108 µM) | 50 mg/L (≈ 108 µM) | 50 mg/L (≈ 108 µM) | 25 mg/L (≈ 54.1 µM) | > 50 mg/L | > 50 mg/L | > 50 mg/L | – | –
CCOC(=O)[C@]1(C#N)[C@@H](c2c(F)cccc2Cl)CN(C)[C@@]12C(=O)Nc1ccc([N+](=O)[O-])cc12 | > 50 mg/L | 50 mg/L (≈ 106 µM) | 50 mg/L (≈ 106 µM) | > 50 mg/L | 50 mg/L (≈ 106 µM) | > 50 mg/L | 50 mg/L (≈ 106 µM) | > 50 mg/L | > 50 mg/L | > 50 mg/L | – | –
CC1(C)S[C@@H]2[C@H](NC(=O)[C@H](N)c3ccccc3)C(=O)N2[C@H]1C(=O)O [AMPICILLIN] | – | – | – | – | – | – | 0.39 mg/L (≈ 1.12 µM) | 50 mg/L (≈ 143 µM) | 50 mg/L (≈ 143 µM) | 0.19 mg/L (≈ 0.544 µM) | – | –
CCOC(=O)[C@]1(C#N)[C@@H](c2ccc(Cl)c(Cl)c2)CN(C)[C@@]12C(=O)Nc1c(C)cc(C)cc12 | > 50 mg/L | > 50 mg/L | > 50 mg/L | > 50 mg/L | > 50 mg/L | 50 mg/L (≈ 106 µM) | 6.25 mg/L (≈ 13.2 µM) | > 50 mg/L | > 50 mg/L | > 50 mg/L | – | –
CCOC(=O)[C@]1(C#N)[C@@H](c2c(F)cccc2Cl)CN(C)[C@@]12C(=O)Nc1c(C)cc(C)cc12 | 25 mg/L (≈ 54.8 µM) | 50 mg/L (≈ 110 µM) | 50 mg/L (≈ 110 µM) | 25 mg/L (≈ 54.8 µM) | 50 mg/L (≈ 110 µM) | 12.5 mg/L (≈ 27.4 µM) | 3.12 mg/L (≈ 6.84 µM) | > 50 mg/L | > 50 mg/L | 12.5 mg/L (≈ 27.4 µM) | – | –
CCOC(=O)[C@]1(C#N)[C@@H](c2ccc(OC)cc2)CN(C)[C@@]12C(=O)Nc1c(C)cc(C)cc12 | > 50 mg/L | > 50 mg/L | > 50 mg/L | > 50 mg/L | > 50 mg/L | 50 mg/L (≈ 115 µM) | 25 mg/L (≈ 57.7 µM) | > 50 mg/L | > 50 mg/L | > 50 mg/L | – | –
C[C@@H]1[C@H](O)[C@@H](C)/C=C/C=C/C=C/C=C/C=C/C=C/C=C/[C@H](O[C@@H]2O[C@H](C)[C@@H](O)[C@H](N)[C@@H]2O)C[C@@H]2O[C@](O)(C[C@@H](O)C[C@@H](O)[C@H](O)CC[C@@H](O)C[C@@H](O)CC(=O)O[C@H]1C)C[C@H](O)[C@H]2C(=O)O [AMPHOTERICIN B] | 0.12 mg/L (≈ 0.13 µM) | 0.06 mg/L (≈ 0.0649 µM) | 0.12 mg/L (≈ 0.13 µM) | 0.5 mg/L (≈ 0.541 µM) | 0.12 mg/L (≈ 0.13 µM) | 0.12 mg/L (≈ 0.13 µM) | – | – | – | – | – | –
CN1C[C@H](c2ccc(Cl)c(Cl)c2)C(C#N)(C#N)[C@]12C(=O)Nc1ccc(Cl)cc12 | 50 mg/L (≈ 116 µM) | > 50 mg/L | > 50 mg/L | > 50 mg/L | > 50 mg/L | > 50 mg/L | 6.25 mg/L (≈ 14.5 µM) | > 50 mg/L | > 50 mg/L | > 50 mg/L | – | –
N#CC1(C#N)[C@@H](c2ccc(Cl)c(Cl)c2)C2CSCN2[C@@]12C(=O)Nc1ccccc12 (some centres not stated) | > 50 mg/L | > 50 mg/L | > 50 mg/L | > 50 mg/L | > 50 mg/L | 50 mg/L (≈ 113 µM) | 0.005 mg/L (≈ 0.0113 µM) | > 50 mg/L | > 50 mg/L | > 50 mg/L | 156 | 78
CCOC(=O)[C@]1(C#N)[C@@H](c2ccc(Cl)cc2)CN(C)[C@@]12C(=O)Nc1c(C)cc(C)cc12 | 50 mg/L (≈ 114 µM) | 50 mg/L (≈ 114 µM) | 50 mg/L (≈ 114 µM) | 50 mg/L (≈ 114 µM) | 50 mg/L (≈ 114 µM) | 50 mg/L (≈ 114 µM) | 1.56 mg/L (≈ 3.56 µM) | > 50 mg/L | > 50 mg/L | 50 mg/L (≈ 114 µM) | – | –
CCOC(=O)[C@]1(C#N)[C@@H](c2cccs2)C2CSCN2[C@@]12C(=O)Nc1ccccc12 (some centres not stated) | > 50 mg/L | > 50 mg/L | > 50 mg/L | > 50 mg/L | > 50 mg/L | 50 mg/L (≈ 117 µM) | 0.09 mg/L (≈ 0.211 µM) | > 50 mg/L | > 50 mg/L | > 50 mg/L | – | –
GENTAMICIN | – | – | – | – | – | – | 0.78 mg/L | 0.78 mg/L | 0.78 mg/L | 0.39 mg/L | – | –
CCOC(=O)[C@]1(C#N)[C@@H](c2ccc(Cl)c(Cl)c2)CN(C)[C@@]12C(=O)Nc1ccc(Cl)cc12 | > 50 mg/L | > 50 mg/L | > 50 mg/L | > 50 mg/L | > 50 mg/L | > 50 mg/L | 50 mg/L (≈ 104 µM) | > 50 mg/L | > 50 mg/L | > 50 mg/L | – | –
N#CC1(C#N)[C@@H](c2cccc([N+](=O)[O-])c2)C2CSCN2[C@@]12C(=O)Nc1ccccc12 (some centres not stated) | > 50 mg/L | > 50 mg/L | > 50 mg/L | > 50 mg/L | > 50 mg/L | > 50 mg/L | 0.19 mg/L (≈ 0.455 µM) | > 50 mg/L | > 50 mg/L | > 50 mg/L | – | –
CCOC(=O)[C@]1(C#N)[C@@H](c2c(F)cccc2Cl)C2CSCN2[C@@]12C(=O)Nc1ccccc12 (some centres not stated) | > 50 mg/L | > 50 mg/L | > 50 mg/L | > 50 mg/L | > 50 mg/L | 50 mg/L (≈ 106 µM) | 0.045 mg/L (≈ 0.0954 µM) | > 50 mg/L | > 50 mg/L | > 50 mg/L | – | –
